The values below come from patent publication US20210170035A1, “METHOD OF TREATING CANCER BY TARGETING MYELOID-DERIVED SUPPRESSOR CELLS” (priority 2016, published 2021).

Like-named read-outs stand apart in the source and are kept apart here.

Experiment [1] has as its system TAMs/MDSCs. Description: Nitric oxide assay (Greiss reagent) after in vitro TAMs/MDSCs screening. It counts as cell-based, mouse. How it is done:
(§1) 10 million 4T1 cells in 300 μL PBS were injected into the peritoneal cavity. Peritoneal ascites were collected between day 7 and day 10 by peritoneal lavage. […] Cells were counted and ready for flow cytometry staining and in vitro screening.
(§2) Different concentrations of screening drugs listed in Table 2 were dissolved in the same medium and were added to each well containing 0.5 millions of cells in 300 μL medium. Wells containing 0.5 million cells in 300 μL medium without addition of drugs were kept as untreated control. Three extra wells were charged with 300 μL medium without cells and drugs to be kept as background control. […] At the end of incubation, supernatant was collected for IL-10 ELISA and nitric oxide assay. Cells were washed twice with 300 μL PBS, and were then ready for the arginase assay.
Nitric oxide production was measured with Greiss reagent as reported in Je-In Youn, Srinivas Nagaraj, Michelle Collazo, and Dmitry I. Gabrilovich, Subsets of Myeloid-Derived Suppressor Cells in Tumor Bearing Mice′, J Immunol. […] Briefly, after in vitro incubation of TAMs/MDSCs with different drugs, 50 μL of supernatant from each well was transferred into a 96-well plat bottom clear plate. 20 μL of Greiss reagent and 30 μL of DI water were added to each well with 50 μL of supernatant. The reaction solution was kept in the dark at room temperature for 30 min prior to a plate reader measurement. The absorbance at 548 nm is correlated to concentration of nitric oxide produced by TAMs/MDSCs. Results are shown in FIG. 9, FIG. 10, FIG. 11 and FIG. 14.

Experiment [2] concerns TAMs/MDSCs. Description: IL-10 ELISA assay after in vitro TAMs/MDSCs screening. To be noted: co-culture with drug; absorbance at 492 nm. It counts as cell-based, mouse. The method, then:
as §1
Cells isolated from the peritoneal model were re-suspended in completed RPMI 1640 medium supplemented with 10 ng/mL mouse GM-CSF and seeded into 96 well plates. Different concentrations of screening drugs listed in Table 2 were dissolved in the same medium and were added to each well containing 0.5 millions of cells in 300 μL medium. Wells containing 0.5 million cells in 300 μL medium without addition of drugs were kept as untreated control. Three extra wells were charged with 300 μL medium without cells and drugs to be kept as background control. Cells were then incubated at 37° C. in a humidified 95% air 5% CO2 atmosphere for 24 hours to 48 hours. At the end of incubation, supernatant was collected for IL-10 ELISA and nitric oxide assay. Cells were washed twice with 300 μL PBS, and were then ready for the arginase assay.
IL-10 production by TAMs/MDSCs after in vitro incubation with different compounds was determined by ELISA assay following the protocol provided with the Mouse IL-10 DuoSet ELISA by R&D Systems. Briefly, a high affinity 96-well plate was coated with 100 μL of diluted capture antibody per well with the working concentration of 4 μg/mL in PBS without carrier protein. The plate was sealed, and incubated overnight at room temperature. Each well was aspirated, and washed three times with 400 μL of wash buffer (0.05% Tween®20 in PBS, pH 7.2-7.4) using a squirt bottle. After the last wash, remaining wash buffer was removed by inverting the plate and blotting it against clean paper towels. The plates were blocked by adding 300 μL of reagent diluent (1% BSA in PBS, pH 7.2-7.4) to each well, and incubated at room temperature for 1 hour. Aspiration/wash was repeated three times in the same manner as previously described. The plates were ready for sample addition. 100 μL of sample supernatant from TAMs/MDSCs in vitro screening were added to each well. The plate was covered with an adhesive strip and incubated for 2 hours at room temperature. The previously mentioned aspiration/wash procedure was repeated three times. 100 μL of the detection antibody with the concentration of 300 ng/mL in reagent diluent was added to each well. The plate was covered with a new adhesive strip and incubated for 2 hours at room temperature. The previously mentioned aspiration/wash procedure was repeated three times. 100 μL of working dilution of streptavidin-HRP (1 to 40 dilution in reagent dilute) was added to each well. The plate was covered and incubated for 20 minutes at room temperature in dark. The previously mentioned aspiration/wash procedure was repeated three times. 200 μL of substrate solution (one bag of silver and golden tablets of OPD in 20 mL of DI water) was added to each well. The plate was incubated for 20 minutes at room temperature in dark. 50 μL of stop solution (3M HCl) was added to each well. The plate was gently tapped to ensure thorough mixing. The IL-10 concentration was proportional to the optical density determined by a microplate reader at 492 nm.
Background: An ELISA detects its analyte on a solid surface through an enzyme-linked reagent.

Experiment [3] has as its system TAMs/MDSCs. Description: Arginase assay after in vitro TAMs/MDSCs screening. The format is cell-based, mouse. The method, then: as §1, §2
Briefly, after in vitro incubation of isolated TAMs/MDSCs with different drugs in 96 well plates, cells were washed twice with 300 μL PBS. […] Subsequently, 50 μL of the lysate solutions were transferred to a new V-shape 96 well plate. 50 μL of arginase activation solution (10 mM MnCl2/50 mM Tris.Cl (pH 7.5)) were added into the cell lysate. The enzyme was activated by heating for 10 min at 56° C. Arginine hydrolysis was conducted by incubating 25 μL of the activated solution with 25 μL of arginase substrate solution (0.5 M L-arginine (pH 9.7)) at 37° C. for 60 min with mild shaking. After cooling to room temperature, 10 μL of the reaction solution was then diluted into 90 μL of PBS. 10 μL of this diluted solution was transferred to a 96 well flat bottom clear plate. 200 μL of urea reagents were added to each well. After incubation in the dark at room temperature for 10 min, the urea concentration was measured at 520 nm by plate reader.

Experiment [4] relates to human MDSCs. In words: IL-10 production by in vitro induced human MDSCs. The conditions noted are these: cultured with drugs for 2 days. It counts as cell-based. The method, then: Human PBMCs from healthy donor were isolated by density gradient centrifugation following standard procedure: […]
Blood was dilute blood with PBS (1:2 dilutions). 15 ml of Ficoll was transferred to a 50 ml tube. 35 ml of diluted blood was carefully placed over the Ficoll medium. The tube was centrifuged at 400 g for 30 min, at 24° C. without brake. After the centrifuge stoped, the tube was carefully removed from the centrifuge while not disturbing the layering. The PBMCs were carefully remove from the tube and transferred to a new 50 mL conical tube. Isolated PBMCs were washed with PBS and centrifuged at 300 g for 10 min. The supernatant was decanted. The pellet was washed once again in PBS and centrifuged at 200 g for 15 min. The isolated PBMCs were counted with the hemocytometer.
Isolated PBMCs were further purified by adhesion in serum free medium for 4 hours at 37° C. at a density of 3×10^6 cell/ml. After removing the suspension cells, adhered PBMCs were cultured in completed RPMI-1640 supplied with 10 ng/ml of IL-6 and GM-CSF for 7 days. Human MDSCs were then sorted by flow as CD33+ cells. Normal human macrophages were differentiated by co-culture PBMCs with completed RPMI-1640 medium for 7 days.
Human MDSCs were cultured with selected drugs for 2 days. The IL-10 production by MDSCs was measured and plotted vs drug concentrations.

Where [5] appears, read: co-culture with drug, absorbance at 548 nm.
[6] abbreviates: co-culture with drug, absorbance at 520 nm.

Regarding `CC1CCN=C(N)S1` (stereo not drawn) [AMT], the “nitric oxide production by TAMs/MDSCs in vitro” value in experiment [1] (setting [5]) is “efficiently decrease nitric oxide production”.
As to `NC(=O)c1cnc(NCCc2ccc(O)c(Cl)c2)nc1NCc1ccccc1` [AS1517499], the “IL-10 production by TAMs/MDSCs in vitro” value in experiment [2] was “efficiently decrease IL-10 production”. Further, the “nitric oxide production by TAMs/MDSCs in vitro” value in experiment [1] (setting [5]) is “efficiently decrease nitric oxide production”. Also, in experiment [3] (setting [6]), the “arginase production by TAMs/MDSCs in vitro” value was “efficiently decrease arginase production”.
Take `Cn1c(=O)n(-c2ccc(C(C)(C)C#N)cc2)c2c3cc(-c4cnc5ccccc5c4)ccc3ncc21` [BEZ235]: the “IL-10 production by human MDSCs” value in experiment [4] is recorded as “decreasing IL-10 production”. Further, the “IL-10 production by TAMs/MDSCs in vitro” value in experiment [2] is reported as “efficiently decrease IL-10 production”. For the same compound, in experiment [1] (setting [5]), the “nitric oxide production by TAMs/MDSCs in vitro” value is listed as “efficiently decrease nitric oxide production”. Also, the “arginase production by TAMs/MDSCs in vitro” value in experiment [3] (setting [6]) is “efficiently decrease arginase production”.
Consider `Cc1ccc(-n2nc(C(C)(C)C)cc2NC(=O)Nc2ccc(OCCN3CCOCC3)c3ccccc23)cc1` [BIRB796], for which the “IL-10 production by TAMs/MDSCs in vitro” value in experiment [2] was “efficiently decrease IL-10 production”. The “nitric oxide production by TAMs/MDSCs in vitro” value in experiment [1] (setting [5]) is “efficiently decrease nitric oxide production”. In experiment [3] (setting [6]), the “arginase production by TAMs/MDSCs in vitro” value was “efficiently decrease arginase production”.
As for `CCCCNc1nc(N)c2[nH]c(=O)n(Cc3ccc(C(=O)NCC(=O)NCCCNCCCCNCCCN)cc3)c2n1` [CL307], the “arginase production by TAMs/MDSCs in vitro” value in experiment [3] (setting [6]) is “efficiently decrease arginase production”.
In the case of `Cc1c(CN2CCN(C(=O)[C@H](C)O)CC2)sc2c(N3CCOCC3)nc(-c3cnc(N)nc3)nc12` [GDC-0980], the “IL-10 production by human MDSCs” value in experiment [4] is reported as “decreasing IL-10 production”. In addition, the “IL-10 production by TAMs/MDSCs in vitro” value in experiment [2] is reported as “best candidate that can efficiently decrease IL-10”. Further, the “nitric oxide production by TAMs/MDSCs in vitro” value in experiment [1] (setting [5]) was “best candidate that can efficiently decrease nitric oxide”. The “arginase production by TAMs/MDSCs in vitro” value in experiment [3] (setting [6]) is given as “best candidate that can efficiently decrease arginase”.
Take `CO[C@H]1C[C@@H]2CC[C@@H](C)[C@@](O)(O2)C(=O)C(=O)N2CCCC[C@H]2C(=O)O[C@H]([C@H](C)C[C@@H]2CC[C@@H](OCCO)[C@H](OC)C2)CC(=O)[C@H](C)/C=C(\C)[C@@H](O)[C@@H](OC)C(=O)[C@H](C)C[C@H](C)/C=C/C=C/C=C/1C` [everolimus]: the “nitric oxide production by TAMs/MDSCs in vitro” value in experiment [1] (setting [5]) is reported as “efficiently decrease nitric oxide production”.
Regarding `Nc1cccc2c1CN(C1CCC(=O)NC1=O)C2=O` (stereo not drawn) [lenalidomide], the “IL-10 production by TAMs/MDSCs in vitro” value in experiment [2] is listed as “efficiently decrease IL-10 production”.
As for `CN(Cc1cnc2nc(N)nc(N)c2n1)c1ccc(C(=O)N[C@@H](CCC(=O)O)C(=O)O)cc1` [methotrexate], in experiment [1] (setting [5]), the “nitric oxide production by TAMs/MDSCs in vitro” value is given as “efficiently decrease nitric oxide production”.
As to `CC[C@H](C)[C@H](NC(=O)[C@H]1CCCCN1C)C(=O)N(COC(=O)CC(C)C)[C@H](C[C@@H](OC(C)=O)c1nc(C(=O)N[C@@H](Cc2ccc(C)cc2)C[C@H](C)C(=O)O)cs1)C(C)C` [tubulysin], in experiment [4], the “IL-10 production by human MDSCs” value is “decreasing IL-10 production”. Further, the “IL-10 production by TAMs/MDSCs in vitro” value in experiment [2] is listed as “efficiently decrease IL-10 production”. Besides, in experiment [1], the “nitric oxide production by TAMs/MDSCs in vitro” value is on record as “efficiently decrease nitric oxide production”. In addition, the “arginase production by TAMs/MDSCs in vitro” value in experiment [3] was “efficiently decrease arginase production”.
`CC[C@]1(O)C[C@@H]2CN(CCc3c([nH]c4ccccc34)[C@@](C(=O)OC)(c3cc4c(cc3OC)N(C)[C@H]3[C@@](O)(C(=O)OC)[C@H](OC(C)=O)[C@]5(CC)C=CCN6CC[C@]43[C@@H]65)C2)C1` [vinblastine]: in experiment [4], the “IL-10 production by human MDSCs” value is recorded as “decreasing IL-10 production”.
